The results in this text go back to US9145405B2, “Oxadiazole compound and preparation method thereof, pharmaceutical composition and use thereof” (SHANGHAI JIAO TONG UNIVERSITY, priority 2011, dated 2015).

≈ marks a conversion by molar mass, not a printed value. Read-outs that look alike come from different tables or passages of the source.

One data set deals with Cox_B3 virus. The experiment in a line: Anti-Cox_B3 test: inhibition of cytopathic effect (CPE) in infected Vero cells, Reed-Muench. Format: cell-based. To be noted: Cox_B3 virus in Vero cells, CPE, Reed-Muench method; for IC50: read-out: IC50 (half-inhibitory concentration for viruses). An excerpt: The present examples verifies experimental results of anti-Cox_B3 of the compounds 1-137of the present invention, Pleconaril, 3-[3,5-dimethyl-4-[5-(3-methy-1,2-oxazolyl)propoxy]phenyl]-5-(trifluonomethyl) -1,2,4-oxadiazole is used as positive control.
For orientation: Protection from cytopathic effect is a common read-out in antiviral testing.

Another data set concerns Vero cells. Briefly: Toxicity (half toxic concentration) in the anti-Cox_B3 test on Vero cells. It counts as cell-based.

In the case of “6-[2,6-dimethyl-4-[(5-(trifluoromethyl)-1,2,4-oxadiazole-3-yl)phenoxyl]ethoxyl]-5-trifluoromethylpyridine [Compound 52]”, the “IC50 (half-inhibitory concentration for viruses)” value with Cox_B3 virus came to 0.13 µg/mL. The “TC50 (half of the toxic concentration)” value with Vero cells came to 41.28 µg/mL.

As to “6-[2,6-dimethyl-4-[(5-(trifluoromethyl)-1,2,4-oxadiazole-3-yl)phenoxyl]ethoxyl]-5-trifluoromethylpyridine [Compound 106]”, in the data set with Cox_B3 virus, the “IC50 (half-inhibitory concentration for viruses)” value is 0.09 µg/mL. In the data set on Vero cells, the “TC50 (half of the toxic concentration)” value was found to be 36.36 µg/mL.

For “6-[2,6-dimethyl-4-[(5-(trifluoromethyl)-1,2,4-oxadiazole-3-yl)phenoxyl]ethoxyl]pyridine-2-oxy-ethylketoxime [Compound 98]”, in the data set on Cox_B3 virus, the “IC50 (half-inhibitory concentration for viruses)” value turned out to be 0.093 µg/mL. Further, in the data set with Vero cells, the “TC50 (half of the toxic concentration)” value was 42.89 µg/mL.

`Cc1cc(OCCOc2c(C)cc(-c3noc(C(F)(F)F)n3)cc2C)no1` [Compound 1, 3-[3,5-dimethyl-4-[2-(5-methylisoxazole-3-oxy)ethoxyl]phenyl]-5-(trifluoromethyl)-1,2,4-oxadiazole]: in the data set on Cox_B3 virus, the IC50 worked out at 0.022 µg/mL (≈ 0.0574 µM). Further, the “TC50 (half of the toxic concentration)” value with Vero cells (Vero cells, Cox_B3) was determined as 50.67 µg/mL.

As for `Cc1cc(OCCOc2c(C)cc(-c3noc(C)n3)cc2C)no1` [Compound 2, 3-[3,5-dimethyl-4-[2-(5-methylisoxazole-3-oxy)ethoxyl]phenyl]-5-methyl-1,2,4-oxadiazole], the IC50 in the data set on Cox_B3 virus was 0.091 µg/mL (≈ 0.276 µM). Also, the “TC50 (half of the toxic concentration)” value with Vero cells (Vero cells, Cox_B3) amounted to 58.78 µg/mL.

Regarding `Cc1cc(-c2noc(C(F)(F)F)n2)cc(C)c1OCCOc1cc(C(F)(F)F)on1` [Compound 3, 3-[3,5-dimethyl-4-[2-(5-trifluoromethylisoxazole-3-oxy)ethoxyl]phenyl]-5-(trifluoromethyl)-1,2,4-oxadiazole], the IC50 with Cox_B3 virus is 0.18 µg/mL (≈ 0.412 µM). Further, the “TC50 (half of the toxic concentration)” value in the data set with Vero cells (Vero cells, Cox_B3) was 36.68 µg/mL.

For `COC(=O)c1cc(OCCOc2c(C)cc(-c3noc(C(F)(F)F)n3)cc2C)no1` [Compound 4, 3-[2-[2,6-dimethyl-4-[5-(trifluoromethyl)-1,2,4-oxadiazole-3-yl]phenoxyl]ethoxyl]-isoxazole-5-carboxylate], in the data set on Cox_B3 virus, the “IC50 (half-inhibitory concentration for viruses)” value was found to be 0.26 µg/mL. The “TC50 (half of the toxic concentration)” value in the data set on Vero cells was 35.58 µg/mL.

On to `Cc1cc(-c2noc(C(F)(F)F)n2)cc(C)c1OCCOc1cc(C(F)(F)F)no1` [Compound 5, 3-[3,5-dimethyl-4-[2-(3-trifluoromethylisoxazole-5-oxy)ethoxyl]phenyl]-5-(trifluoromethyl)-1,2,4-oxadiazole], for which, in the data set on Cox_B3 virus, the IC50 was 0.05 µg/mL (≈ 0.114 µM). For the same compound, the “TC50 (half of the toxic concentration)” value in the data set on Vero cells (Vero cells, Cox_B3) turned out to be 40.12 µg/mL.

For `COC(=O)c1cc(OCCCOc2c(C)cc(-c3noc(C(F)(F)F)n3)cc2C)no1` [Compound 7, 3-[3-[2,6-dimethyl-4-[5-(trifluoromethyl)-1,2,4-oxadiazole-3-yl]phenoxyl]propoxy]-isoxazole-5-carboxylate], the “IC50 (half-inhibitory concentration for viruses)” value in the data set on Cox_B3 virus was determined as 0.24 µg/mL. Moreover, the “TC50 (half of the toxic concentration)” value with Vero cells worked out at 36.48 µg/mL.

Consider `Cc1cc(OCCCOc2c(C)cc(-c3noc(C(F)(F)F)n3)cc2C)on1` [Compound 8, 3-[3,5-dimethyl-4-[3-(3-methylisoxazole-5-oxy)propoxy]phenyl]-5-(trifluoromethyl)-1,2,4-oxadiazole], for which the IC50 with Cox_B3 virus turned out to be 0.021 µg/mL (≈ 0.0528 µM). The “TC50 (half of the toxic concentration)” value in the data set with Vero cells (Vero cells, Cox_B3) is 52.38 µg/mL.

As for `Cc1cc(OCCOc2c(C)cc(-c3noc(C(F)(F)F)n3)cc2C)ns1` [Compound 10, 3-[3,5-dimethyl-4-[2-(5-methylisothiazole-3-oxy)ethoxyl]phenyl]-5-(trifluoromethyl)-1,2,4-oxadiazole], in the data set with Cox_B3 virus, the IC50 came out at 0.042 µg/mL (≈ 0.105 µM). In the data set on Vero cells (Vero cells, Cox_B3), the “TC50 (half of the toxic concentration)” value was found to be 46.47 µg/mL.

For the compound `Cc1cc(OCCCOc2c(C)cc(-c3noc(C(F)(F)F)n3)cc2C)ns1` [Compound 11, 3-[3,5-dimethyl-4-[3-(5-methylisothiazole-3-oxy)propoxy]phenyl]-5-(trifluoromethyl)-1,2,4-oxadiazole], the IC50 with Cox_B3 virus turned out to be 0.058 µg/mL (≈ 0.14 µM). Also, the “TC50 (half of the toxic concentration)” value in the data set with Vero cells (Vero cells, Cox_B3) is 45.87 µg/mL.

Turning to `Cc1c[nH]c(OCCOc2c(C)cc(-c3noc(C(F)(F)F)n3)cc2C)n1` [Compound 12, 3-[3,5-dimethyl-4-[2-(4-methylimidazole-2-oxy)ethoxyl]phenyl]-5-(trifluoromethyl)-1,2,4-oxadiazole], the IC50 in the data set with Cox_B3 virus is 0.12 µg/mL (≈ 0.314 µM). For the same compound, in the data set with Vero cells (Vero cells, Cox_B3), the “TC50 (half of the toxic concentration)” value worked out at 40.27 µg/mL.

Consider `Cc1csc(OCCOc2c(C)cc(-c3noc(C(F)(F)F)n3)cc2C)n1` [Compound 13, 3-[3,5-dimethyl-4-[2-(4-methylthiazole-2-oxy)ethoxyl]phenyl]-5-(trifluoromethyl)-1,2,4-oxadiazole], for which the IC50 in the data set on Cox_B3 virus came to 0.15 µg/mL (≈ 0.376 µM). Moreover, the “TC50 (half of the toxic concentration)” value in the data set with Vero cells (Vero cells, Cox_B3) is 38.68 µg/mL.

Take `Cc1cc(OCCOc2c(C)cc(-c3noc(C(F)(F)F)n3)cc2C)[nH]n1` [Compound 15, 3-[3,5-dimethyl-4-[2-(3-methyl-1H-pyrazole-5-oxy)ethoxyl]phenyl]-5-(trifluoromethyl)-1,2,4-oxadiazole]: in the data set with Cox_B3 virus, the IC50 is 0.12 µg/mL (≈ 0.314 µM). In the data set with Vero cells (Vero cells, Cox_B3), the “TC50 (half of the toxic concentration)” value is 42.38 µg/mL.

For `Cc1cc(-c2noc(C(F)(F)F)n2)cc(C)c1OCCOc1cc(C(F)(F)F)nn1C` [Compound 16, 3-[3,5-dimethyl-4-[2-[1-methyl-3-(trifluoromethyl)-1H-pyrazole-5-oxy]ethoxyl]phenyl]-5-(trifluoromethyl)-1,2,4-oxadiazole], the IC50 in the data set on Cox_B3 virus was determined as 0.09 µg/mL (≈ 0.2 µM). In the data set with Vero cells (Vero cells, Cox_B3), the “TC50 (half of the toxic concentration)” value worked out at 41.38 µg/mL.

With `Cc1cc(-c2noc(C(F)(F)F)n2)cc(C)c1OCCOc1cc(C(=O)O)nn1C` [Compound 17, 5-[2-[2,6-dimethyl-4-[5-(trifluoromethyl)-1,2,4-oxadiazole-3-yl]phenoxyl]ethoxyl]-1-methyl-1H-pyrazole-3-carboxylic acid], the IC50 with Cox_B3 virus amounted to 0.07 µg/mL (≈ 0.164 µM). Besides, the “TC50 (half of the toxic concentration)” value in the data set on Vero cells (Vero cells, Cox_B3) worked out at 44.39 µg/mL.

As to `Cc1cc(-c2nc(C(F)(F)F)no2)cc(C)c1OCCOc1noc(C(F)(F)F)n1` [Compound 22], the “IC50 (half-inhibitory concentration for viruses)” value in the data set with Cox_B3 virus came out at 0.08 µg/mL. In addition, the “TC50 (half of the toxic concentration)” value in the data set on Vero cells is 40.78 µg/mL.

For `Cc1nnc(OCCOc2c(C)cc(-c3noc(C(F)(F)F)n3)cc2C)[nH]1` [Compound 24, 3-[2-[2,6-dimethyl-4-[5-(trifluoromethyl)-1,2,4-oxadiazole-3-yl]phenoxyl]ethoxyl]-5-methyl-4H-1,2,4-triazole], in the data set with Cox_B3 virus, the IC50 was determined as 0.03 µg/mL (≈ 0.0783 µM). The “TC50 (half of the toxic concentration)” value in the data set on Vero cells (Vero cells, Cox_B3) is 42.23 µg/mL.

For the compound `Cc1nnc(SCCOc2c(C)cc(-c3noc(C(F)(F)F)n3)cc2C)[nH]1` [Compound 25, 3-[2-[2,6-dimethyl-4-[5-(trifluoromethyl)-1,2,4-oxadiazole-3-yl]phenoxyl]ethylthio]-5-methyl-4H-1,2,4-triazole], the IC50 in the data set with Cox_B3 virus was 0.09 µg/mL (≈ 0.225 µM). Moreover, the “TC50 (half of the toxic concentration)” value in the data set with Vero cells (Vero cells, Cox_B3) came to 40.21 µg/mL.

Turning to `Cc1cc(-c2noc(C(F)(F)F)n2)cc(C)c1OCCSc1nnc(C(F)(F)F)[nH]1` [Compound 26, 3-[2-[2,6-dimethyl-4-[5-(trifluoromethyl)-1,2,4-oxadiazole-3-yl]phenoxyl]ethylthio]-5-trifluoromethyl-4H-1,2,4-triazole], the IC50 in the data set on Cox_B3 virus is 0.06 µg/mL (≈ 0.132 µM). The “TC50 (half of the toxic concentration)” value with Vero cells (Vero cells, Cox_B3) is 38.35 µg/mL.

As for `Cc1cc(-c2noc(C(F)(F)F)n2)cc(C)c1OCCSc1nnc(C)n1C` [Compound 27, 3-[2-[2,6-dimethyl-4-[5-(trifluoromethyl)-1,2,4-oxadiazole-3-yl]phenoxyl]ethylthio]-4,5-dimethyl-4H-1,2,4-triazole], the IC50 with Cox_B3 virus came out at 0.07 µg/mL (≈ 0.169 µM). Further, in the data set on Vero cells (Vero cells, Cox_B3), the “TC50 (half of the toxic concentration)” value was 39.25 µg/mL.

With `Cc1nnc(OCCOc2c(C)cc(-c3noc(C(F)(F)F)n3)cc2C)o1` [Compound 28, 3-[3,5-dimethyl-4-[2-[5-methyl-1,3,4-oxadiazole-2-oxy]ethoxyl]phenyl]-5-(trifluoromethyl)-1,2,4-oxadiazole], the IC50 in the data set on Cox_B3 virus worked out at 0.11 µg/mL (≈ 0.286 µM). Moreover, the “TC50 (half of the toxic concentration)” value in the data set with Vero cells (Vero cells, Cox_B3) amounted to 32.36 µg/mL.

For the compound `Cc1cc(-c2noc(C(F)(F)F)n2)cc(C)c1OCCOc1nnc(C(F)(F)F)s1` [Compound 30, 3-[3,5-dimethyl-4-[2-[5-trifluoromethyl-1,3,4-thiadiazole-2-oxy]ethoxyl]phenyl]-5-(trifluoromethyl)-1,2,4-oxadiazole], in the data set with Cox_B3 virus, the IC50 stood at 0.08 µg/mL (≈ 0.176 µM). The “TC50 (half of the toxic concentration)” value in the data set with Vero cells (Vero cells, Cox_B3) was found to be 34.39 µg/mL.

Consider `Cc1cc(-c2noc(C(F)(F)F)n2)cc(C)c1OCCOc1ncc(C(=O)O)c(O)n1` [Compound 32, 2-[2-[2,6-dimethyl-4-[5-(trifluoromethyl)-1,2,4-oxadiazole-3-yl]phenoxyl]ethoxyl]-4-hydroxyl-pyrimidine-5-carboxylic acid], for which, in the data set with Cox_B3 virus, the IC50 is 0.023 µg/mL (≈ 0.0522 µM). Besides, the “TC50 (half of the toxic concentration)” value in the data set on Vero cells (Vero cells, Cox_B3) was 40.28 µg/mL.

For the compound `Cc1cc(-c2noc(C(F)(F)F)n2)cc(C)c1OCCOc1nccc(C(F)(F)F)n1` [Compound 33, 2-[2-[2,6-dimethyl-4-[5-(trifluoromethyl)-1,2,4-oxadiazole-3-yl]phenoxyl]ethoxyl]-4-(trifluoromethyl) pyrimidine], the IC50 with Cox_B3 virus came to 0.12 µg/mL (≈ 0.268 µM). In addition, the “TC50 (half of the toxic concentration)” value with Vero cells (Vero cells, Cox_B3) is 35.28 µg/mL.

As for `Cc1cc(-c2noc(C(F)(F)F)n2)cc(C)c1OCCSc1nccc(C(F)(F)F)n1` [Compound 34, 2-[2-[2,6-dimethyl-4-[5-(trifluoromethyl)-1,2,4-oxadiazole-3-yl]phenoxyl]ethylthio]-4-(trifluoromethyl) pyrimidine], in the data set with Cox_B3 virus, the IC50 is 0.11 µg/mL (≈ 0.237 µM). The “TC50 (half of the toxic concentration)” value in the data set with Vero cells (Vero cells, Cox_B3) worked out at 33.28 µg/mL.

As for `Cc1cc(-c2noc(C(F)(F)F)n2)cc(C)c1OCCOC(C)(C)C` [Compound 36, 3-[3,5-dimethyl-4-[(2-tert-butoxy)ethoxyl]phenyl]-5-(trifluoromethyl)-1,2,4-oxadiazole], in the data set with Cox_B3 virus, the IC50 turned out to be 0.13 µg/mL (≈ 0.363 µM). For the same compound, the “TC50 (half of the toxic concentration)” value with Vero cells (Vero cells, Cox_B3) is 40.12 µg/mL.
